ChEMBL document CHEMBL4837239, “Identification of Thieno[3,2-d]pyrimidine Derivatives as Dual Inhibitors of Focal Adhesion Kinase and FMS-like Tyrosine Kinase 3” (J Med Chem, 2021)
pIC50: −log10 of the molar value.

Legend:
[1] = Antiproliferative activity against human A375P cells assessed as growth inhibition measured after 72 hrs by CellTiter-Glo assay; format: functional
[2] = tested on: BaF3; test: Antiproliferative activity against mouse Ba/F3 cells harbouring FLT3 D835Y mutant assessed as growth inhibition measured after 72 hrs by CellTiter-Glo assay; format: functional
[3] = target: CYP2D6 (Homo sapiens, UniProt P10635); test: Inhibition of CYP2D6 (unknown origin) at 10 uM relative to control; format: ADME
[4] = Metabolic stability in human liver microsomes assessed as compound remaining at 1 uM measured after 1 hr; format: ADME, Microsome; settings: read-out: Stabilty
[5] = tested on: HCT-116; test: Antiproliferative activity against human HCT-116 cells assessed as growth inhibition measured after 72 hrs by CellTiter-Glo assay; format: functional
[6] = target: T1, CYP1A2 (Homo sapiens, UniProt P05177); test: Inhibition of CYP1A2 (unknown origin) at 10 uM relative to control; format: ADME
T1 sequence (P05177 whole entry): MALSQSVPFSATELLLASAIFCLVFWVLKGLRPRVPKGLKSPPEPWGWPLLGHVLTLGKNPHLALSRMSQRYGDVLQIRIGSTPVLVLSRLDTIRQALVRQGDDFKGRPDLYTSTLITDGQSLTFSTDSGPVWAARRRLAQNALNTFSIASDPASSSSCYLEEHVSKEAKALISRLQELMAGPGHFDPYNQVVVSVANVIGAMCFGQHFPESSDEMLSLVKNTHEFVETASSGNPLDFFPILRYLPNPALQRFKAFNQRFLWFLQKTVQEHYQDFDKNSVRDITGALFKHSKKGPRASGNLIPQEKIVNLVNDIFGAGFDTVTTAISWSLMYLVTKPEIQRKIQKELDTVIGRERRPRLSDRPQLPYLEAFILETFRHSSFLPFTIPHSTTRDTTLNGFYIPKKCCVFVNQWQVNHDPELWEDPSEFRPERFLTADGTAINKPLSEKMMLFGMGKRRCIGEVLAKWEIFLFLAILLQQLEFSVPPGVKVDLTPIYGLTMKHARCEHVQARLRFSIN

[7] = target: CYP3A4 (Homo sapiens, UniProt P08684); test: Inhibition of CYP3A4 (unknown origin) at 10 uM relative to control; format: ADME
[8] = tested on: BaF3; test: Antiproliferative activity against mouse Ba/F3 cells harbouring FLT3 ITD mutant assessed as growth inhibition measured after 72 hrs by CellTiter-Glo assay; format: functional
[9] = tested on: BaF3; test: Antiproliferative activity against mouse Ba/F3 cells harbouring FLT3 ITD D835Y mutant assessed as growth inhibition measured after 72 hrs by CellTiter-Glo assay; format: functional
[10] = Inhibition of FLT3 D835Y (unknown origin); parameters: species or system Homo sapiens
[11] = target: CYP2C9 (Homo sapiens, UniProt P11712); test: Inhibition of CYP2C9 (unknown origin) at 10 uM relative to control; format: ADME
[12] = tested on: BaF3; test: Antiproliferative activity against mouse Ba/F3 cells harbouring FLT3 ITD F691I mutant assessed as growth inhibition measured after 72 hrs by CellTiter-Glo assay; format: functional
[13] = target: CYP2C19 (Homo sapiens, UniProt P33261); test: Inhibition of CYP2C19 (unknown origin) at 10 uM relative to control; format: ADME
[14] = tested on: MDA-MB-231; test: Antiproliferative activity against human MDA-MB-231 cells assessed as growth inhibition measured after 72 hrs by CellTiter-Glo assay; format: functional
[15] = tested on: BaF3; test: Antiproliferative activity against mouse Ba/F3 cells harbouring FLT3 ITD F691L mutant assessed as growth inhibition measured after 72 hrs by CellTiter-Glo assay; format: functional
[16] = tested on: BaF3; test: Antiproliferative activity against mouse Ba/F3 cells assessed as growth inhibition measured after 72 hrs by CellTiter-Glo assay; format: functional
[17] = target: Focal adhesion kinase 1 (Homo sapiens, UniProt Q05397); test: Inhibition of recombinant FAK (unknown origin) by radiometric kinase assay
Chain of Focal adhesion kinase 1 (Q05397 whole entry): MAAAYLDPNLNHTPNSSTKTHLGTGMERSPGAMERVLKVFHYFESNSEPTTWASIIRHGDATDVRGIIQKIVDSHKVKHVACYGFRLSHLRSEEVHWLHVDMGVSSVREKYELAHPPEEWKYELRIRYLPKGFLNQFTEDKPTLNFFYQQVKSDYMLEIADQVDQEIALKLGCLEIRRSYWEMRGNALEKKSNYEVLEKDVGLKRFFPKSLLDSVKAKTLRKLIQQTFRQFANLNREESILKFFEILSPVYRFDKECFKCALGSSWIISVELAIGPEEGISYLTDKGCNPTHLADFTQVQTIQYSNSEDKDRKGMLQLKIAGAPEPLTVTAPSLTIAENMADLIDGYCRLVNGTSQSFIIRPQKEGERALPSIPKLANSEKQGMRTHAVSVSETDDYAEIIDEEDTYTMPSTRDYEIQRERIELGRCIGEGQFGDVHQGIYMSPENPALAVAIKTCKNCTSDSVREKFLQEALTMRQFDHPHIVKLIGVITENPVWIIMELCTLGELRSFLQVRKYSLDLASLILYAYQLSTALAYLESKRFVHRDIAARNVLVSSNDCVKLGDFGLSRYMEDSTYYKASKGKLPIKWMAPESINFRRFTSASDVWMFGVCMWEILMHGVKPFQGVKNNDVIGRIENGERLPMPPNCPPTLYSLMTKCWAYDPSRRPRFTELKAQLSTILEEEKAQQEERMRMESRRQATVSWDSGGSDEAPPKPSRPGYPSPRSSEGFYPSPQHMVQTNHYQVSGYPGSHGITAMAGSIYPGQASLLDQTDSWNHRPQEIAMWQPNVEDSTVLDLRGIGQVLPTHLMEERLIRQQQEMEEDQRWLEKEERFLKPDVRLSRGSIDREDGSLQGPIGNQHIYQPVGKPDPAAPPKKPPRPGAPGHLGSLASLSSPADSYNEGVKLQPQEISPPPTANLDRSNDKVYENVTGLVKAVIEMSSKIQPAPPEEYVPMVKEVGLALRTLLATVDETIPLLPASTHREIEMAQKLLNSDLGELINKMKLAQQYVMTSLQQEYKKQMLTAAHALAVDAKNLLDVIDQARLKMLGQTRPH

Chain of CYP2C9 (P11712 whole entry): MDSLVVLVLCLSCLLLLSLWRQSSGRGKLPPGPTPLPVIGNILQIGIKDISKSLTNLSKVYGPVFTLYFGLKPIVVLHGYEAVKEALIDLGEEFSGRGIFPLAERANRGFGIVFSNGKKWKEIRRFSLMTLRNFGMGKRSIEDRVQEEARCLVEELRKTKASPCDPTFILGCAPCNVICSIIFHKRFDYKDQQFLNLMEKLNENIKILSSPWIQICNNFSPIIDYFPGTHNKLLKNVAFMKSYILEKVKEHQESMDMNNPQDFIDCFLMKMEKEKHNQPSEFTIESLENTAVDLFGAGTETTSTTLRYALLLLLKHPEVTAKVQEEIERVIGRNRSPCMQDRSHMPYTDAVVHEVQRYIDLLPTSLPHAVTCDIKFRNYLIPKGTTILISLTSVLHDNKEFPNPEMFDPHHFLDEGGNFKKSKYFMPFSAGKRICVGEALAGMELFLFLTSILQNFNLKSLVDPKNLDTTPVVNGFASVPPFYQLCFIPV
Chain of CYP3A4 (P08684 whole entry): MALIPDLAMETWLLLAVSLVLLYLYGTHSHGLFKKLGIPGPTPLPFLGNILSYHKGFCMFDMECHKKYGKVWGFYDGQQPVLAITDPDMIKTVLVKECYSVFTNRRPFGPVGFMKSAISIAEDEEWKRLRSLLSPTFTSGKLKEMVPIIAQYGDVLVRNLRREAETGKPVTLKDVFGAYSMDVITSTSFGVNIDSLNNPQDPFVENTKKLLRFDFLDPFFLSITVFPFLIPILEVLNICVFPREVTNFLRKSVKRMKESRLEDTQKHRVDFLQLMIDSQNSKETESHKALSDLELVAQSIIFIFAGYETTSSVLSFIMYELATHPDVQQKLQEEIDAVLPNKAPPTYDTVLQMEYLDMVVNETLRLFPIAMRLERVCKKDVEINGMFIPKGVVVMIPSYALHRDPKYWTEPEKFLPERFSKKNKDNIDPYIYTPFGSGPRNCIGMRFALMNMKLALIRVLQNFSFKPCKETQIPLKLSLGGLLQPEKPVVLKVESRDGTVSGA
Chain of CYP2C19 (P33261 whole entry): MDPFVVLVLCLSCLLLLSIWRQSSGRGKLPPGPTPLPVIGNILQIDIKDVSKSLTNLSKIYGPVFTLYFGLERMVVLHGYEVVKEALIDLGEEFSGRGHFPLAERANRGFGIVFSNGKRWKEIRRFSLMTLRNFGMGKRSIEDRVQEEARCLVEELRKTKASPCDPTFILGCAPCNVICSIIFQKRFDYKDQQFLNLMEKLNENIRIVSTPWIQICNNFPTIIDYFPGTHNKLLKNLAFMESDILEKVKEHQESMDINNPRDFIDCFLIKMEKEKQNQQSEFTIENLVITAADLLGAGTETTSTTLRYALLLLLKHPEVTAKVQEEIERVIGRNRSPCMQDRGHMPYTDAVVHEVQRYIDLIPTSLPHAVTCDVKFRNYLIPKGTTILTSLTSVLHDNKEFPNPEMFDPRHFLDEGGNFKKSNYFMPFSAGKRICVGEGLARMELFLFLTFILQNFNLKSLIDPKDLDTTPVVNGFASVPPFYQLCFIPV
Chain of CYP2D6 (P10635 whole entry): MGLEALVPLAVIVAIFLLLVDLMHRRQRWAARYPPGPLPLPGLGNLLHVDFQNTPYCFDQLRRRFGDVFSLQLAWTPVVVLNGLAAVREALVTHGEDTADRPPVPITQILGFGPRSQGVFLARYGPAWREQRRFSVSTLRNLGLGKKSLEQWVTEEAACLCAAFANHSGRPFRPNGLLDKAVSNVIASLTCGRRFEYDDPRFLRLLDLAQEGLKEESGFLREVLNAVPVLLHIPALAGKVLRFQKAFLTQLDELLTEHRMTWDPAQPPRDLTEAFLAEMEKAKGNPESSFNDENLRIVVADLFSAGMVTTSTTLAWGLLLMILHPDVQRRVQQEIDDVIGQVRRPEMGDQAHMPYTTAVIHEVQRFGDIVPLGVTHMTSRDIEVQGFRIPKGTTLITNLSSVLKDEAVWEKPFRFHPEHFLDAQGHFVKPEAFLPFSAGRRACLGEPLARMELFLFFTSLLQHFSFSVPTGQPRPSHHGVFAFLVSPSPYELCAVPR

SMILES | GI50 ([1]; Homo sapiens, A375P) | GI50 ([2]; Mus musculus, BaF3) | inhibition at 10 µM [3] | remaining at 1 h, 1 µM [4] | GI50 ([5]; Homo sapiens, HCT-116) | inhibition at 10 µM [6] | inhibition at 10 µM [7] | GI50 ([8]; Mus musculus, BaF3) | GI50 ([9]; Mus musculus, BaF3) | pIC50 [10] | GI50 ([12]; Mus musculus, BaF3) | inhibition at 10 µM [13] | GI50 ([14]; Homo sapiens, MDA-MB-231) | GI50 ([15]; Mus musculus, BaF3) | GI50 ([16]; Mus musculus, BaF3) | pIC50 [17] | other results
CCN1CCN(c2ccc(Nc3ncc4scc(-c5cccc([N+](=O)[O-])c5)c4n3)cc2)CC1 | 500 nM | 4 nM | 100% | 73.1% | 110 nM | 44.8% | 55.1% | 23.4 nM | 20.5 nM | > 9.30 | 234 nM | 82.9% | 260 nM | 136 nM | 511 nM | 7.68 | inhibition at 10 µM [11]: 100%
CNC(=O)c1ccccc1Nc1nc(Nc2ccc(N3CCOCC3)cc2OC)ncc1Cl | 1690 nM | – | 83.2% | – | 270 nM | 73.3% | 71.2% | – | – | – | – | 50.5% | 1490 nM | – | – | – | inhibition at 10 µM [11]: 27%
CCN1CCN(c2ccc(Nc3ncc4scc(-c5cccc(N(C)S(C)(=O)=O)c5)c4n3)cc2)CC1 | 220 nM | 53 nM | – | 57.2% | 190 nM | – | – | 31.7 nM | 14.3 nM | > 9.30 | 301 nM | – | 450 nM | 117 nM | 695 nM | 7.68 | –
CCN1CCN(c2ccc(Nc3ncc4scc(-c5ccccn5)c4n3)cc2)CC1 | 420 nM | 1.2 nM | – | 54.2% | 270 nM | – | – | 9.1 nM | 14.2 nM | > 9.30 | 164 nM | – | 290 nM | 55 nM | 206 nM | 7.92 | –
CS(=O)(=O)Nc1cccc(-c2csc3cnc(Nc4ccc(N5CCC(O)CC5)cc4)nc23)c1 | – | – | 61.5% | 54.8% | – | 34.9% | 57.9% | – | – | > 9.30 | – | 56.5% | – | – | – | 7.80 | GI50 [1]: 1930 nM; GI50 [2]: 23 nM; GI50 [5]: 520 nM; GI50 [8]: 14.5 nM; GI50 [9]: 14 nM; GI50 [12]: 587 nM; GI50 [14]: 440 nM; GI50 [15]: 299 nM; GI50 [16]: 600 nM
CCN1CCN(c2ccc(Nc3ncc4scc(-c5cccc(OC)c5)c4n3)cc2)CC1 | 510 nM | 46.5 nM | 86.4% | 83.7% | 240 nM | 35.1% | 72.1% | 1100 nM | 90.7 nM | > 9.30 | 390 nM | 79.4% | 280 nM | 222 nM | 405 nM | 7.92 | inhibition at 10 µM [11]: 89.3%
CC(C)(C)c1cc(NC(=O)Nc2ccc(-c3cn4c(n3)sc3cc(OCCN5CCOCC5)ccc34)cc2)no1 [QUIZARTINIB] | – | 2.2 nM | – | – | – | – | – | 0.6 nM | 12.9 nM | – | > 10000 nM | – | – | 68.2 nM | > 10000 nM | – | –
CS(=O)(=O)Nc1cccc(-c2csc3cnc(Nc4ccc(N5CCNCC5)cc4)nc23)c1 | 490 nM | 1.6 nM | 84.7% | 100% | 250 nM | 67.5% | 57.3% | 7.4 nM | 11 nM | > 9.30 | 183 nM | 57.5% | 460 nM | 103 nM | 550 nM | 7.92 | inhibition at 10 µM [11]: 63.2%
CCN1CCN(c2ccc(Nc3ncc4scc(-c5cccc(S(=O)(=O)NC)c5)c4n3)cc2)CC1 | 400 nM | 6.1 nM | – | 60.2% | 170 nM | – | – | 34.7 nM | 13.2 nM | > 9.30 | 243 nM | – | 420 nM | 226 nM | 468 nM | 7.96 | –
CN(C)c1ccc(Nc2ncc3scc(-c4cccc(NS(C)(=O)=O)c4)c3n2)cc1 | – | – | – | 63.8% | – | – | – | – | – | – | – | – | – | – | – | 7.74 | GI50 [1]: 3480 nM; GI50 [5]: 2270 nM; GI50 [14]: 3320 nM
CCc1nc(C(N)=O)c(Nc2ccc(N3CCC(N4CCN(C)CC4)CC3)c(OC)c2)nc1NC1CCOCC1 [GILTERITINIB] | – | 2 nM | – | – | – | – | – | – | 5 nM | – | 259 nM | – | – | 82.8 nM | – | – | –
CCN1CCN(c2ccc(Nc3ncc4scc(-c5cccc(S(C)(=O)=O)c5)c4n3)cc2)CC1 | 640 nM | 8.7 nM | – | 55.5% | 510 nM | – | – | 20.6 nM | 25.2 nM | > 9.30 | 245 nM | – | 520 nM | 170 nM | 427 nM | 7.74 | –
CCN1CCN(c2ccc(Nc3ncc4scc(-c5cccnc5)c4n3)cc2)CC1 | 710 nM | 7.1 nM | – | 68.9% | 9130 nM | – | – | 20 nM | 28.2 nM | > 9.30 | 299 nM | – | 820 nM | 140 nM | 596 nM | 7.51 | –
CCN1CCN(c2cccc(Nc3ncc4scc(-c5cccc(NS(C)(=O)=O)c5)c4n3)c2)CC1 | 900 nM | – | – | 100% | 420 nM | – | – | – | – | – | – | – | 1420 nM | – | – | 7.89 | –
